Structures can show the parent of a compound that is named as a salt.
Assays:
Type in all cases: in vivo
Botrytis cinerea [1] = assay: Example 7: efficacy against Botrytis cinerea on gherkin plants, Compound 1 and benalaxyl; conditions: grading 5 to 7 days after contamination
Protocol: (§1) The active ingredients tested are prepared by potter homogenisation in a mixture of acetone/tween/water. This suspension is then diluted with water to obtain the desired active material concentration.
(§2) Gherkin plants (Petit vert de Paris variety) in starter cups, sown on a 50/50 peat soil-pozzolana substrate and grown at 18-20° C., are treated at the cotyledon Z11 stage by spraying with the aqueous suspension described above. Plants, used as controls, are treated with an aqueous solution not containing the active material.
(§3) After 24 hours, the plants are contaminated by depositing drops of an aqueous suspension of Botrytis cinerea spores (150,000 spores per ml) on upper surface of the leaves. The spores are collected from a 15-day-old culture and are suspended in a nutrient solution composed of: • 20 g/L of gelatine • 50 g/L of cane sugar • 2 g/L of NH4NO3 • 1 g/L of KH2PO4
(§4) The contaminated gherkin plants are settled for 5/7 days in a climatic room at 15-11° C. (day/night) and at 80% relative humidity. Grading (% of efficacy) is carried out 5 to 7 days after the contamination, in comparison with the control plants.

Puccinia recondita = assay: Example 3: efficacy against Puccinia recondita on wheat plants, Compound 1 and captan; conditions: 240 h, grading 10 days after contamination
Protocol: as §1
Wheat plants (Scipion variety) in starter cups, sown on 50/50 peat soil-pozzolana substrate and grown at 12° C., are treated at the 1-leaf stage (10 cm tall) by spraying with the aqueous suspension described above.
(§5) Plants, used as controls, are treated with an aqueous solution not containing the active material.
After 24 hours, the plants are contaminated by spraying the leaves with an aqueous suspension of Puccinia recondita spores (100,000 spores per ml). The spores are collected from a 10-day-old contaminated wheat and are suspended in water containing 2.5 ml/l of tween 80 10%. The contaminated wheat plants are incubated for 24 hours at 20° C. and at 100% relative humidity, and then for 10 days at 20° C. and at 70% relative humidity. Grading is carried out 10 days after the contamination, in comparison with the control plants.

[2] = system: Erysiphe graminis f. sp. tritici; assay: Example 14: efficacy against Erysiphe graminis f. sp. tritici on wheat plants, Compound 1 and chlorothalonil; conditions: Blumeria graminis, grading 7 to 14 days after contamination
Protocol: The formulated compounds are diluted with water to obtain the desired active material concentration
Wheat plants (Audace variety) in starter cups, sown on 50/50 peat soil-pozzolana substrate and grown at 12° C., are treated at the 1-leaf stage (10 cm tall) by spraying with the aqueous suspension described above.
as §5
After 24 hours, the plants are contaminated by dusting them with Erysiphe graminis f. sp. tritici spores, the dusting being carried out using diseased plants.
Grading is carried out 7 to 14 days after the contamination, in comparison with the control plants.

Botrytis cinerea [3] = assay: Example 1: efficacy against Botrytis cinerea on gherkin plants, Compound 1 and mancozeb; conditions: grading 5 to 7 days after contamination
Protocol: (§6) Gherkin plants (Petit vert de Paris variety) in starter cups, sown on a 50/50 peat soil-pozzolana substrate and grown at 18-20° C., are treated at the cotyledon Z11 stage by spraying with the aqueous suspension described above.
as §3, §4

Botrytis cinerea [4] = assay: Example 2: efficacy against Botrytis cinerea on gherkin plants, Compound 1 and propineb; conditions: grading 5 to 7 days after contamination
Protocol: as §6, §3, §4

Botrytis cinerea [5] = assay: Example 4: efficacy against Botrytis cinerea on gherkin plants, Compound 1 and folpet; conditions: grading 5 to 7 days after contamination
Protocol: as §2, with “The formulated compounds are diluted with water to obtain the desired active material concentration. Gherkin” for “Gherkin”
as §3, §4

Botrytis cinerea [6] = assay: Example 5: efficacy against Botrytis cinerea on gherkin plants, Compound 1 and iprodione; conditions: grading 5 to 7 days after contamination
Protocol: as §2, with “The formulated compounds are diluted with water to obtain the desired active material concentration. Gherkin” for “Gherkin”
as §3, §4

Botrytis cinerea [7] = assay: Example 6: efficacy against Botrytis cinerea on gherkin plants, Compound 1 and fludioxonil
Protocol: as §1, §2, §3, §4

Botrytis cinerea [8] = assay: Example 8: efficacy against Botrytis cinerea on gherkin plants, Compound 1 and metalaxyl-M; conditions: grading 5 to 7 days after contamination
Protocol: as §1, §2, §3, §4

Botrytis cinerea [9] = assay: Example 9: efficacy against Botrytis cinerea on gherkin plants, Compound 1 and propamocarb-HCl; conditions: grading 5 to 7 days after contamination
Protocol: as §6, §3, §4

Botrytis cinerea [10] = assay: Example 10: efficacy against Botrytis cinerea on gherkin plants, Compound 1 and fosetyl-Al; conditions: grading 5 to 7 days after contamination
Protocol: (§7) The formulated compounds are diluted with water to obtain the desired active material concentration.
as §2, §3, §4

Sphaerotheca fuliginea [11] = assay: Example 11: efficacy against Sphaerotheca fuliginea on gherkin plants, Compound 1 and tolylfluanid; conditions: Podosphaera fuliginea, 504 h, grading 21 days after contamination
Protocol: as §7
as §2, with “(Vert petit” for “(Petit vert”, “20° C./23°” for “18-20°”, “2-leaves” for “cotyledon Z11”
After 24 hours, the plants are contaminated by spraying them with an aqueous suspension of Sphaerotheca fuliginea spores (100,000 spores per ml). The spores are collected from a contaminated plants The contaminated gerkhin plants are incubated at about 20° C./25° C. and at 60/70% relative humidity.
(§8) Grading (% of efficacy) is carried out 21 days after the contamination, in comparison with the control plants.

Peronospora parasitica = assay: Example 12: efficacy against Peronospora parasitica on cabbage plants, Compound 1 and Compound A; conditions: Hyaloperonospora parasitica, 120 h, grading 5 days after contamination
Protocol: The active ingredient tested is prepared by potter homogenisation in a concentrated suspension type formulation at 100 g/l. This suspension is then diluted with water to obtain the desired active material concentration.
Cabbage plants (Eminence variety) in starter cups, sown on a 50/50 peat soil-pozzolana substrate and grown at 18-20° C., are treated at the cotyledon stage by spraying with the aqueous suspension described above.
as §5
After 24 hours, the plants are contaminated by spraying them with an aqueous suspension of Peronospora parasitica spores (50,000 spores per ml). The spores are collected from infected plant.
The contaminated cabbage plants are incubated for 5 days at 20° C., under a humid atmosphere.
Grading is carried out 5 days after the contamination, in comparison with the control plants.

Sphaerotheca fuliginea [12] = assay: Example 13: efficacy against Sphaerotheca fuliginea on gherkin plants, Compound 1 and iprovalicarb; conditions: grading 21 days after contamination
Protocol: Gherkin plants (Vert petit de Paris variety) in starter cups, sown on a 50/50 peat soil-pozzolana substrate and grown at 20° C./23° C., are treated at the 2-leaves stage by spraying with the aqueous suspension described above.
After 24 hours, the plants are contaminated by spraying them with an aqueous suspension of Sphaerotheca fuliginea spores (100 000 spores per ml). The spores are collected from a contaminated plants The contaminated gerkhin plants are incubated at about 20° C./25° C. and at 60/70% relative humidity.
as §8

Q: `COC(=O)C(C)N(C(=O)Cc1ccccc1)c1c(C)cccc1C` (stereo not drawn) [Benalaxyl, benalaxyl, reference compound] was tested. Which Emax at 111 ppm (Botrytis cinerea [1]; 111 ppm) did it give?
A: 7%

Q: How did the Emax at 125 ppm (Puccinia recondita) turn out when `O=C1C2CC=CCC2C(=O)N1SC(Cl)(Cl)Cl` (stereo not drawn) [Captan, captan] was run?
A: 0%

Q: And the Emax at 250 ppm (Puccinia recondita)?
A: 0%

Q: And the Emax at 500 ppm (Puccinia recondita; 500 ppm)?
A: 10%

Q: With `N#Cc1c(Cl)c(Cl)c(Cl)c(C#N)c1Cl` [Chlorothalonil, chlorothalonil, reference compound] as the compound, how does the Emax at 250 g/ha [2] read?
A: 0%

Q: For `O=C(NCCc1ncc(C(F)(F)F)cc1Cl)c1ccccc1C(F)(F)F` [Compound 1, N-{2-[3-chloro-5-(trifluoromethyl)-2-pyridinyl]ethyl}-2-trifluoromethylbenzamide], which Emax at 37 ppm (Botrytis cinerea [3]; Botrytis cinerea, 37 ppm) is on record?
A: 50%

Q: What about the Emax at 111 ppm (Botrytis cinerea [3]; Botrytis cinerea, 111 ppm) of the same compound?
A: 70%

Q: What about the Emax at 37 ppm (Botrytis cinerea [4]; Botrytis cinerea, 37 ppm) of the same compound?
A: 65%

Q: What about the Emax at 111 ppm (Botrytis cinerea [4]; Botrytis cinerea, 111 ppm) of the same compound?
A: 87%

Q: What about the Emax at 125 ppm (Puccinia recondita) of the same compound?
A: 0%

Q: And the Emax at 250 ppm (Puccinia recondita)?
A: 10%

Q: And the Emax at 37 ppm (Botrytis cinerea [5]; 37 ppm)?
A: 50%

Q: And the Emax at 111 ppm (Botrytis cinerea [5]; 111 ppm)?
A: 70%

Q: What about the Emax at 37 ppm (Botrytis cinerea [6]) of the same compound?
A: 0%

Q: And the Emax at 12.3 ppm (Botrytis cinerea [7]; 12.3 ppm, gherkin plants, grading 5 to 7 days after contamination)?
A: 0%

Q: What about the Emax at 37 ppm (Botrytis cinerea [7]; 37 ppm, gherkin plants, grading 5 to 7 days after contamination) of the same compound?
A: 38%

Q: And the Emax at 37 ppm (Botrytis cinerea [1]; 37 ppm)?
A: 78%

Q: And the Emax at 37 ppm (Botrytis cinerea [8]; Botrytis cinerea, 37 ppm)?
A: 45%

Q: And the Emax at 111 ppm (Botrytis cinerea [9]; 111 ppm)?
A: 70%

Q: And the Emax at 111 ppm (Botrytis cinerea [10]; Botrytis cinerea, 111 ppm)?
A: 70%

Q: What about the Emax at 4.1 ppm (Sphaerotheca fuliginea [11]; 4.1 ppm) of the same compound?
A: 69%

Q: What about the Emax at 12.3 ppm (Peronospora parasitica) of the same compound?
A: 0%

Q: What about the Emax at 12.3 ppm (Sphaerotheca fuliginea [12]; Podosphaera fuliginea, 504 h, 12.3 ppm) of the same compound?
A: 65%

Q: What about the Emax at 250 g/ha [2] of the same compound?
A: 30%

Q: And the Emax at 500 g/ha ([2]; 500 g/ha)?
A: 60%

Q: With `O=C(NCc1ncc(C(F)(F)F)cc1Cl)c1c(Cl)cccc1Cl` [Compound A, 2,6-dichloro-N-{[3-chloro-5-(tri-fluoromethyl)-2-pyridinyl]methyl}benzamide, reference compound] as the compound, how does the Emax at 12.3 ppm (Peronospora parasitica) read?
A: 40%

Q: For `N#Cc1c[nH]cc1-c1cccc2c1OC(F)(F)O2` [Fludioxonil, fludioxonil, reference compound], which Emax at 4.1 ppm (Botrytis cinerea [7]; read-out: % Efficacy) is on record?
A: 0%

Q: For `O=C1c2ccccc2C(=O)N1SC(Cl)(Cl)Cl` [Folpet, folpet, reference compound], which Emax at 333 ppm (Botrytis cinerea [5]; 333 ppm) is on record?
A: 0%

Q: What about the Emax at 1000 ppm (Botrytis cinerea [5]; 1000 ppm) of the same compound?
A: 0%

Q: `CCO[PH](=O)O` [Fosetyl-Al, fosetyl-Al, reference compound] was tested. Which “% Efficacy” value (Botrytis cinerea [10]; 1000 ppm) did it give?
A: 0%

Q: For `CC(C)NC(=O)N1CC(=O)N(c2cc(Cl)cc(Cl)c2)C1=O` [Iprodione, iprodione], which Emax at 37 ppm (Botrytis cinerea [6]) is on record?
A: 0%

Q: And the Emax at 111 ppm (Botrytis cinerea [6]; 111 ppm)?
A: 90%

Q: For `Cc1ccc(C(C)NC(=O)[C@@H](NC(=O)OC(C)C)C(C)C)cc1` (stereo partly drawn) [Iprovalicarb, iprovalicarb, reference compound], which “% Efficacy” value (Sphaerotheca fuliginea [12]; 111 ppm) is on record?
A: 50%

Q: Which “% Efficacy” value (Botrytis cinerea [8]; 111 ppm) does the source give for `COCC(=O)N(c1c(C)cccc1C)[C@H](C)C(=O)OC` [Metalaxyl-M, metalaxyl-M, reference compound] here?
A: 0%

Q: For `CCCOC(=O)NCCCN(C)C` [Popamocarb-HCl, propamocarb-HCl, reference compound], which Emax at 1000 ppm (Botrytis cinerea [9]; 1000 ppm) is on record?
A: 0%

Q: With `Cc1ccc(N(SC(F)(Cl)Cl)S(=O)(=O)N(C)C)cc1` [Tolylfluanid, tolylfluanid] as the compound, how does the Emax at 12.3 ppm (Sphaerotheca fuliginea [11]; 12.3 ppm) read?
A: 0%

Q: And the Emax at 37 ppm (Sphaerotheca fuliginea [11]; 37 ppm)?
A: 50%

Q: With mancozeb [reference compound] as the compound, how does the “% Efficacy” value (Botrytis cinerea [3]; 1000 ppm) read?
A: 0%

Q: propineb [reference compound] was tested. Which “% Efficacy” value (Botrytis cinerea [4]; 3000 ppm) did it give?
A: 0%

— US7776892B2, “Fungicidal composition comprising a pyridylethylbenzamide derivative and a compound capable of inhibiting the spores germination or mycelium growth by acting on different metabolic routes” (Bayer Cropscience S.A., priority 2004, dated 2010)
